{
  "source": "patent US9487545B2",
  "about": "“Fused ring-containing oxazolidinones antibiotics” (Xuanzhu Pharma Co., Ltd., priority 2011, dated 2016)",
  "assay_type_in_all_cases": "cell-based",
  "key": {"[1]": {"test_system": "methicillin-sensitive Staphylococcus epidermidis (MSSE)", "experiment": "In vitro antibacterial activity, standard agar dilution method, MSSE", "details": "clinically separated strains, read-out: Antibiotic Activity MIC MSSE", "text": "(§1) Strains for test: all the clinically separated strains below were purchased from public facilities.\n(§2) Methicillin-resistant Staphylococcus aureus (MRSA), methicillin-resistant Staphylococcus epidermidis (MRSE), methicillin-sensitive Staphylococcus aureus (MSSA), methicillin-sensitive Staphylococcus epidermidis (MSSE), Enterococcus faecalis (efa), Enterococcus faecium (efm), streptococcus pneumoniae. Obtained from: Qianfoshan Hospital, First People's Hospital of Yunnan Province, Renji Hospital of Shanghai, People's Hospital of Jilin Province, Southwest Hospital.\n(§3) some compounds of the present invention (chemical names and preparation methods thereof are as described in Preparation Examples of the compounds); linezolid (commercially available) and compound 38 (prepared following the process of Patent US2011098471).\n(§4) standard agar dilution method, reference was made to National Committee for Clinical Laboratory Standards. 2006. Methods for Dilution Antimicrobial Susceptibility Tests for Bacteria That Grow Aerobically, Approved Standard Seventh Edition M7-A7."}, "streptococcus pneumoniae": {"test_system": "streptococcus pneumoniae", "experiment": "In vitro antibacterial activity, standard agar dilution method, Streptococcus pneumoniae", "details": "clinically separated strains", "text": "as §1, §2, §3, §4"}, "[2]": {"test_system": "Enterococcus faecalis (efa)", "experiment": "In vitro antibacterial activity, standard agar dilution method, efa", "details": "clinically separated strains, read-out: Antibiotic Activity MIC efa", "text": "as §1, §2, §3, §4"}, "[3]": {"test_system": "Methicillin-resistant Staphylococcus aureus (MRSA)", "experiment": "In vitro antibacterial activity, standard agar dilution method, MRSA", "details": "clinically separated strains, read-out: Antibiotic Activity MIC MRSA", "text": "as §1, §2, §3, §4"}, "[4]": {"test_system": "Enterococcus faecium (efm)", "experiment": "In vitro antibacterial activity, standard agar dilution method, efm", "details": "clinically separated strains, read-out: Antibiotic Activity MIC efm", "text": "as §1, §2, §3, §4"}, "[5]": {"test_system": "methicillin-sensitive Staphylococcus aureus (MSSA)", "experiment": "In vitro antibacterial activity, standard agar dilution method, MSSA", "details": "clinically separated strains, read-out: Antibiotic Activity MIC MSSA", "text": "as §1, §2, §3, §4"}, "[6]": {"test_system": "methicillin-resistant Staphylococcus epidermidis (MRSE)", "experiment": "In vitro antibacterial activity, standard agar dilution method, MRSE", "details": "clinically separated strains, read-out: Antibiotic Activity MIC MRSE", "text": "as §1, §2, §3, §4"}},
  "data": [
    {"smiles": "Cn1nnnc1N1Cc2ccc(-c3ccc(N4C[C@H](CO)OC4=O)cc3F)cc2C1", "note": "[Compound 19]", "values": [
      {"measurement": "MIC", "setting": "[1]", "value": 0.5, "unit": "µg/mL"},
      {"measurement": "Antibiotic Activity MIC Streptococcus pneumoniae", "setting": "streptococcus pneumoniae", "value": 1, "unit": "µg/mL"},
      {"measurement": "MIC", "setting": "[2]", "value": 2, "unit": "µg/mL"},
      {"measurement": "MIC", "setting": "[3]", "value": 1, "unit": "µg/mL"},
      {"measurement": "MIC", "setting": "[4]", "value": 2, "unit": "µg/mL"},
      {"measurement": "MIC", "setting": "[5]", "value": 1, "unit": "µg/mL"},
      {"measurement": "MIC", "setting": "[6]", "value": 1, "unit": "µg/mL"}
    ]},
    {"smiles": "CC(=O)NC[C@H]1CN(c2ccc(N3CCOCC3)c(F)c2)C(=O)O1", "note": "[Linezolid, reference compound]", "values": [
      {"measurement": "MIC", "setting": "[1]", "value": 2, "unit": "µg/mL"},
      {"measurement": "Antibiotic Activity MIC Streptococcus pneumoniae", "setting": "streptococcus pneumoniae", "value": 2, "unit": "µg/mL"},
      {"measurement": "MIC", "setting": "[2]", "value": 2, "unit": "µg/mL"},
      {"measurement": "MIC", "setting": "[3]", "value": 2, "unit": "µg/mL"},
      {"measurement": "MIC", "setting": "[4]", "value": 2, "unit": "µg/mL"},
      {"measurement": "MIC", "setting": "[5]", "value": 2, "unit": "µg/mL"},
      {"measurement": "MIC", "setting": "[6]", "value": 1, "unit": "µg/mL"}
    ]},
    {"smiles": "O=C1O[C@@H](CO)CN1c1ccc(-c2ccc3c(c2)CN(c2cnn[nH]2)C3)c(F)c1", "note": "[Compound 3, (R)-3-(4-(2-(1H-1,2,3-triazol-5-yl)isoindolin-5-yl)-3-fluorophenyl)-5-(hydroxylmethyl)oxazolidin-2-one]", "values": [
      {"measurement": "MIC", "setting": "[1]", "value": 0.125, "unit": "µg/mL"},
      {"measurement": "Antibiotic Activity MIC Streptococcus pneumoniae", "setting": "streptococcus pneumoniae", "value": 0.5, "unit": "µg/mL"},
      {"measurement": "MIC", "setting": "[2]", "value": 0.5, "unit": "µg/mL"},
      {"measurement": "MIC", "setting": "[3]", "value": 0.5, "unit": "µg/mL"},
      {"measurement": "MIC", "setting": "[4]", "value": 0.5, "unit": "µg/mL"},
      {"measurement": "MIC", "setting": "[5]", "value": 0.5, "unit": "µg/mL"},
      {"measurement": "MIC", "setting": "[6]", "value": 0.25, "unit": "µg/mL"}
    ]},
    {"smiles": "Cn1nnc(N2Cc3ccc(-c4ccc(N5C[C@H](CO)OC5=O)cc4F)cc3C2)n1", "note": "[Compound 1, (R)-3-(3-fluoro-4-(2-(2-methyl-2H-tetrazol-5-yl)isoindolin-5-yl)phenyl)-5-(hydroxylmethyl)oxazolidin-2-one]", "values": [
      {"measurement": "MIC", "setting": "[1]", "value": 0.5, "unit": "µg/mL"},
      {"measurement": "Antibiotic Activity MIC Streptococcus pneumoniae", "setting": "streptococcus pneumoniae", "value": 0.25, "unit": "µg/mL"},
      {"measurement": "MIC", "setting": "[2]", "value": 1, "unit": "µg/mL"},
      {"measurement": "MIC", "setting": "[3]", "value": 1, "unit": "µg/mL"},
      {"measurement": "MIC", "setting": "[4]", "value": 0.5, "unit": "µg/mL"},
      {"measurement": "MIC", "setting": "[5]", "value": 1, "unit": "µg/mL"},
      {"measurement": "MIC", "setting": "[6]", "value": 0.5, "unit": "µg/mL"}
    ]},
    {"smiles": "CC(=O)NC[C@H]1CN(c2ccc(-c3ccc4c(c3)CN(c3nnn(C)n3)C4)c(F)c2)C(=O)O1", "note": "[Compound 2, (S)—N-((3-(3-fluoro-4-(2-(2-methyl-2H-tetrazol-5-yl)isoindolin-5-yl)phenyl)-2-oxo-oxazolidin-5-yl)methyl)acetamide]", "values": [
      {"measurement": "MIC", "setting": "[1]", "value": 0.5, "unit": "µg/mL"},
      {"measurement": "Antibiotic Activity MIC Streptococcus pneumoniae", "setting": "streptococcus pneumoniae", "value": 0.5, "unit": "µg/mL"},
      {"measurement": "MIC", "setting": "[2]", "value": 0.5, "unit": "µg/mL"},
      {"measurement": "MIC", "setting": "[3]", "value": 0.25, "unit": "µg/mL"},
      {"measurement": "MIC", "setting": "[4]", "value": 0.5, "unit": "µg/mL"},
      {"measurement": "MIC", "setting": "[5]", "value": 0.5, "unit": "µg/mL"},
      {"measurement": "MIC", "setting": "[6]", "value": 0.25, "unit": "µg/mL"}
    ]},
    {"smiles": "CC(=O)NC[C@H]1CN(c2ccc(-c3ccc4nc(-c5nnn(C)n5)cn4c3)c(F)c2)C(=O)O1", "note": "[Compound 38, reference compound]", "values": [
      {"measurement": "MIC", "setting": "[1]", "value": 0.5, "unit": "µg/mL"},
      {"measurement": "Antibiotic Activity MIC Streptococcus pneumoniae", "setting": "streptococcus pneumoniae", "value": 0.5, "unit": "µg/mL"},
      {"measurement": "MIC", "setting": "[2]", "value": 0.25, "unit": "µg/mL"},
      {"measurement": "MIC", "setting": "[3]", "value": 0.5, "unit": "µg/mL"},
      {"measurement": "MIC", "setting": "[4]", "value": 0.5, "unit": "µg/mL"},
      {"measurement": "MIC", "setting": "[5]", "value": 0.5, "unit": "µg/mL"},
      {"measurement": "MIC", "setting": "[6]", "value": 0.25, "unit": "µg/mL"}
    ]},
    {"smiles": "CC(=O)NC[C@H]1CN(c2ccc(-c3ccc4c(c3)CN(c3cnn[nH]3)C4)c(F)c2)C(=O)O1", "note": "[Compound 4, (S)—N-((3-(4-(2-(1H-1,2,3-triazol-5-yl)isoindolin-5-yl)-3-fluorophenyl)-2-oxo-oxazolidin-5-yl)methyl)acetamide]", "values": [
      {"measurement": "MIC", "setting": "[1]", "value": 0.125, "unit": "µg/mL"},
      {"measurement": "Antibiotic Activity MIC Streptococcus pneumoniae", "setting": "streptococcus pneumoniae", "value": 0.5, "unit": "µg/mL"},
      {"measurement": "MIC", "setting": "[2]", "value": 0.25, "unit": "µg/mL"},
      {"measurement": "MIC", "setting": "[3]", "value": 0.25, "unit": "µg/mL"},
      {"measurement": "MIC", "setting": "[4]", "value": 0.25, "unit": "µg/mL"},
      {"measurement": "MIC", "setting": "[5]", "value": 0.25, "unit": "µg/mL"},
      {"measurement": "MIC", "setting": "[6]", "value": 0.25, "unit": "µg/mL"}
    ]},
    {"smiles": "O=C1O[C@@H](CO)CN1c1ccc(-c2ccc3c(c2)CN(c2ccn[nH]2)C3)c(F)c1", "note": "[Compound 20]", "values": [
      {"measurement": "MIC", "setting": "[1]", "value": 0.5, "unit": "µg/mL"},
      {"measurement": "MIC", "setting": "[2]", "value": 8, "unit": "µg/mL"},
      {"measurement": "MIC", "setting": "[3]", "value": 2, "unit": "µg/mL"},
      {"measurement": "MIC", "setting": "[4]", "value": 8, "unit": "µg/mL"},
      {"measurement": "MIC", "setting": "[5]", "value": 1, "unit": "µg/mL"},
      {"measurement": "MIC", "setting": "[6]", "value": 0.5, "unit": "µg/mL"}
    ]}
  ]
}
